# Biological target: T1, recombinant human GST-SYK (Homo sapiens, UniProt P43405)
# T1 construct: purchased Carna Biosciences 08-176
# Assay: Homogeneous Time-Resolved Fluorescence (HTRF) assay for the recombinant human SYK enzyme
# Assay type: biochemical
# Settings: recombinant human GST-SYK 5 pM, ATP 25 μM, 10-dose titration; read-out: rhSYK Activity (IC50)
# Description: Homogeneous Time-Resolved Fluorescence (HTRF) Assay for the Recombinant Human SYK Enzyme:
# A recombinant GST-hSYK fusion protein was used to measure potency of compounds to inhibit human SYK activity. The recombinant human GST-SYK (Carna Biosciences #08-176) (5 pM final concentration) was incubated with various concentrations of the inhibitor diluted in DMSO (0.1% final concentration) for 10 minutes at room temperature in 15 mM Tris-HCl (pH 7.5), 0.01% tween 20, 2 mM DTT in 384 well plate format. To initiate the reaction the biotinylated substrate peptide (250 nM final concentration) that contains the phosphorylation site for SYK was added with magnesium (5 mM final concentration) and ATP (25 μM final concentration). Final volume of the reaction was 10 μL. Phosphorylation of the peptide was allowed to proceed for 45′ at room temperature. To quench the reaction and detect the phosphorylated product, 2 nM of a Europium-atiti-phosphotyrosine antibody (Perkin Elmer #AD0161) and 70 nM SA-APC (Perkin-Elmer #CR130-100) were added together in 15 mM Tris pH 7.5, 40 mM EDTA, 0.01% tween 20. Final volume of the quenching solution was 10 μL. The resulting HTRF signal was measured after 30 minutes on a EnVision (Perkin-Elmer) reader using a time-resolved fluorescence protocol.
row,Compound,IC50 [µM]
1,Cc1cc(Nc2nccc(C(F)(F)F)n2)cc(-c2cnc(NCc3ccncc3)s2)c1 [Example 86],≤ 0.1
2,Cc1cc(Nc2nccc(C(F)(F)F)n2)cc(-c2cnc(NCc3cncn3C)s2)c1 [Example 87],≤ 0.1
3,Cc1cc(Nc2nccc(C(F)(F)F)n2)cc(-c2cnc(NCc3cc(C)n(C)n3)s2)c1 [Example 88],≤ 0.1
4,Cc1cc(Nc2nccc(C(F)(F)F)n2)cc(-c2cnc(NCc3cn4ccccc4n3)s2)c1 [Example 89],0.1 to 1
5,Cc1cc(Nc2nccc(C(F)(F)F)n2)cc(-c2cnc(N(C)CCc3c[nH]c4ccccc34)s2)c1 [Example 90],0.1 to 1
6,Cc1cc(Nc2nccc(C(F)(F)F)n2)cc(-c2cnc(NCCc3c[nH]cn3)s2)c1 [Example 93],≤ 0.1
7,Cc1cc(Nc2nccc(C(F)(F)F)n2)cc(-c2cnc(NCC(O)C(F)F)s2)c1 (centres unmarked) [Example 95],≤ 0.1
8,Cc1cc(Nc2nccc(C(F)(F)F)n2)cc(-c2cnc(NCCc3cnccn3)s2)c1 [Example 96],≤ 0.1
9,Cc1cc(Nc2nccc(C(F)(F)F)n2)cc(-c2cnc(NCc3cc(C)on3)s2)c1 [Example 97],≤ 0.1
10,Cc1cc(Nc2nccc(C(F)(F)F)n2)cc(-c2cnc(NC(C)c3cccnc3)s2)c1 (centres unmarked) [Example 99],≤ 0.1
11,Cc1cc(Nc2nccc(C(F)(F)F)n2)cc(-c2cnc(N(C)Cc3nc4ccccc4o3)s2)c1 [Example 102],0.1 to 1
12,Cc1cc(Nc2nccc(C(F)(F)F)n2)cc(-c2cnc(NCc3cnsc3)s2)c1 [Example 104],≤ 0.1
13,Cc1cc(Nc2nccc(C(F)(F)F)n2)cc(-c2cnc(NCc3cnsn3)s2)c1 [Example 105],≤ 0.1
14,Cc1cc(Nc2nccc(C(F)(F)F)n2)cc(-c2cnc(NCCc3ncn[nH]3)s2)c1 [Example 106],≤ 0.1
15,Cc1cc(Nc2nccc(C(F)(F)F)n2)cc(-c2cnc(NCCc3ccco3)s2)c1 [Example 107],≤ 0.1
16,Cc1cc(Nc2nccc(C(F)(F)F)n2)cc(-c2cnc(NCCc3cccs3)s2)c1 [Example 108],0.1 to 1
17,Cc1cc(Nc2nccc(C(F)(F)F)n2)cc(-c2cnc(NCCc3nccs3)s2)c1 [Example 109],≤ 0.1
18,Cc1cc(Nc2nccc(C(F)(F)F)n2)cc(-c2cnc(NCCc3cscn3)s2)c1 [Example 110],≤ 0.1
19,Cc1cc(Nc2nccc(C(F)(F)F)n2)cc(-c2cnc(NCCc3c(C)n[nH]c3C)s2)c1 [Example 111],≤ 0.1
20,Cc1cc(Nc2nccc(C(F)(F)F)n2)cc(-c2cnc(NCCc3c[nH]c4ccccc34)s2)c1 [Example 112],≤ 0.1
21,Cc1cc(Nc2nccc(C(F)(F)F)n2)cc(-c2cnc(NCC(O)c3ccncc3)s2)c1 (centres unmarked) [Example 117],0.1 to 1
22,Cc1cc(Nc2nccc(C(F)(F)F)n2)cc(-c2cnc(NCCc3ccncc3)s2)c1 [Example 118],≤ 0.1

row,Compound,IC50 [µM]
1,FC(F)(F)c1ccnc(Nc2cccc(-c3cnc(N4CCOCC4)s3)c2)n1 [Example 119],≤ 0.1
2,FC(F)(F)c1ccnc(Nc2cccc(-c3cnc(N4CCOC(C(F)(F)F)C4)s3)c2)n1 (centres unmarked) [Example 121],0.1 to 1
3,O=C1CN(c2ncc(-c3cccc(Nc4nccc(C(F)(F)F)n4)c3)s2)CCN1 [Example 123],1 to 10
4,CC1C(=O)NCCN1c1ncc(-c2cccc(Nc3nccc(C(F)(F)F)n3)c2)s1 (centres unmarked) [Example 124],≤ 0.1
5,O=C(O)c1cccc(N2CCN(c3ncc(-c4cccc(Nc5nccc(C(F)(F)F)n5)c4)s3)CC2)c1 [Example 125],≤ 0.1
6,C=CCOC(=O)N1CCN(c2ncc(-c3cccc(Nc4nccc(C(F)(F)F)n4)c3)s2)C(CO)C1 (centres unmarked) [Example 126],0.1 to 1
7,COCC(=O)N1CCN(c2ncc(-c3cccc(Nc4nccc(C(F)(F)F)n4)c3)s2)CC1 [Example 127],≤ 0.1
8,OCC1CCCCN1c1ncc(-c2cccc(Nc3nccc(C(F)(F)F)n3)c2)s1 (centres unmarked) [Example 132],≤ 0.1
9,O=C(COC1CCN(c2ncc(-c3cccc(Nc4nccc(C(F)(F)F)n4)c3)s2)CC1)NC1CC1 [Example 136],0.1 to 1
10,FC(F)(F)c1ccnc(Nc2cccc(-c3cnc(N4CCC(n5cc(-c6ccccc6)nn5)CC4)s3)c2)n1 [Example 137],0.1 to 1
11,CC(C)(C)OC(=O)NCC1CCN(c2ncc(-c3cccc(Nc4nccc(C(F)(F)F)n4)c3)s2)CC1 [Example 138],1 to 10
12,OCCC1CCN(c2ncc(-c3cccc(Nc4nccc(C(F)(F)F)n4)c3)s2)CC1 [Example 141],≤ 0.1
13,CC1(O)CN(c2ncc(-c3cccc(Nc4nccc(C(F)(F)F)n4)c3)s2)C1 [Example 154],≤ 0.1
14,OC1(C(F)(F)F)CN(c2ncc(-c3cccc(Nc4nccc(C(F)(F)F)n4)c3)s2)C1 [Example 155],0.1 to 1
15,OC1(c2ccccc2)CCN(c2ncc(-c3cccc(Nc4nccc(C(F)(F)F)n4)c3)s2)C1 (centres unmarked) [Example 159],0.1 to 1
16,OCCC1(c2ccc(Cl)cc2)CCN(c2ncc(-c3cccc(Nc4nccc(C(F)(F)F)n4)c3)s2)C1 (centres unmarked) [Example 160],1 to 10
17,FC(F)(F)c1ccnc(Nc2cccc(-c3cnc(N4CCCC4c4ccccc4)s3)c2)n1 (centres unmarked) [Example 161],0.1 to 1
18,O=C1CN(c2ncc(-c3cccc(Nc4nccc(C(F)(F)F)n4)c3)s2)CCCN1 [Example 166],≤ 0.1
19,FC(F)(F)c1ccnc(Nc2cccc(-c3cnc(N4CCCNCC4)s3)c2)n1 [Example 167],≤ 0.1
20,O=C1CCN(c2ncc(-c3cccc(Nc4nccc(C(F)(F)F)n4)c3)s2)CCN1 [Example 168],≤ 0.1
21,CC(=O)N1CCCN(c2ncc(-c3cccc(Nc4nccc(C(F)(F)F)n4)c3)s2)CC1 [Example 169],≤ 0.1
22,OCC1C2CN(c3ncc(-c4cccc(Nc5nccc(C(F)(F)F)n5)c4)s3)CC12 (centres unmarked) [Example 171],≤ 0.1

# Continued, values first:
row,IC50 [µM],Compound
1,≤ 0.1,Cc1cc(Nc2nccc(C(F)(F)F)n2)cc(-c2cnc(NCc3cn(C)cn3)s2)c1 [Example 94]
2,≤ 0.1,Cc1cc(Nc2nccc(C(F)(F)F)n2)cc(-c2cnc(NC[C@H]3CC[C@@H](N)CC3)s2)c1 [Example 98]
3,≤ 0.1,Cc1cc(Nc2nccc(C(F)(F)F)n2)cc(-c2cnc(NCc3cnn(C)c3)s2)c1 [Example 100]
4,≤ 0.1,Cc1cc(Nc2nccc(C(F)(F)F)n2)cc(-c2cnc(N(C)Cc3cnn(C)c3)s2)c1 [Example 101]
5,≤ 0.1,Cc1cc(Nc2nccc(C(F)(F)F)n2)cc(-c2cnc(NCCC3(O)CCN(C)CC3)s2)c1 [Example 116]
6,≤ 0.1,Cc1cc(Nc2nccc(C(F)(F)F)n2)cc(-c2cnc(N3CCOCC3)s2)c1 [Example 122]
7,≤ 0.1,Cc1cc(Nc2nccc(C(F)(F)F)n2)cc(-c2cnc(N3CCN(C(=O)c4ccc5cc[nH]c5c4)CC3)s2)c1 [Example 128]
8,≤ 0.1,OC1CCN(c2ncc(-c3cccc(Nc4nccc(C(F)(F)F)n4)c3)s2)CC1 [Example 129]
9,≤ 0.1,OCC1CCN(c2ncc(-c3cccc(Nc4nccc(C(F)(F)F)n4)c3)s2)CC1 [Example 130]
10,≤ 0.1,OC1CCCN(c2ncc(-c3cccc(Nc4nccc(C(F)(F)F)n4)c3)s2)C1 (centres unmarked) [Example 131]
11,≤ 0.1,OCC1CCCN(c2ncc(-c3cccc(Nc4nccc(C(F)(F)F)n4)c3)s2)C1 (centres unmarked) [Example 134]
12,0.1 to 1,FC1CCN(c2ncc(-c3cccc(Nc4nccc(C(F)(F)F)n4)c3)s2)CC1 [Example 140]
13,≤ 0.1,OCCC1CCCN(c2ncc(-c3cccc(Nc4nccc(C(F)(F)F)n4)c3)s2)C1 (centres unmarked) [Example 142]
14,≤ 0.1,NC1CCN(c2ncc(-c3cccc(Nc4nccc(C(F)(F)F)n4)c3)s2)CC1 [Example 143]
15,1 to 10,Cc1cc(Nc2nccc(C(F)(F)F)n2)cc(-c2cnc(N3CCC(OCC(=O)NC(C)(C)C)CC3)s2)c1 [Example 145]
16,1 to 10,Cc1cc(Nc2nccc(C(F)(F)F)n2)cc(-c2cnc(N3CCC(c4ccc(S(C)(=O)=O)cc4)CC3)s2)c1 [Example 146]
17,≤ 0.1,Cc1cc(Nc2nccc(C(F)(F)F)n2)cc(-c2cnc(N3CCC(CC(N)=O)CC3)s2)c1 [Example 148]
18,≤ 0.1,CC(=O)NCCC1CCN(c2ncc(-c3cc(C)cc(Nc4nccc(C(F)(F)F)n4)c3)s2)CC1 [Example 150]
19,≤ 0.1,Cc1cc(Nc2nccc(C(F)(F)F)n2)cc(-c2cnc(N3CCC4CN(C)CC4C3)s2)c1 (centres unmarked) [Example 153]
20,≤ 0.1,O[C@@H]1CN(c2ncc(-c3cccc(Nc4nccc(C(F)(F)F)n4)c3)s2)C[C@@H]1O [Example 157]
21,≤ 0.1,OC1CCN(c2ncc(-c3cccc(Nc4nccc(C(F)(F)F)n4)c3)s2)C1 (centres unmarked) [Example 158]
22,≤ 0.1,NC1CCN(c2ncc(-c3cccc(Nc4nccc(C(F)(F)F)n4)c3)s2)C1 (centres unmarked) [Example 162]
23,≤ 0.1,N[C@H]1CCN(c2ncc(-c3cccc(Nc4nccc(C(F)(F)F)n4)c3)s2)C1 [Example 163]
24,≤ 0.1,Cc1cc(Nc2nccc(C(F)(F)F)n2)cc(-c2cnc(N3CC4CNC(CO)C4C3)s2)c1 (centres unmarked) [Example 165]
25,≤ 0.1,Cc1cc(Nc2nccc(C(F)(F)F)n2)cc(-c2cnc(N3CCN4CCCC4C3)s2)c1 (centres unmarked) [Example 172]
26,≤ 0.1,Cc1cc(Nc2nccc(C(F)(F)F)n2)cc(-c2cnc(N3CCn4ccnc4C3)s2)c1 [Example 173]
27,≤ 0.1,Cc1cc(Nc2nccc(C(F)(F)F)n2)cc(-c2cnc(N3CCn4cncc4C3)s2)c1 [Example 174]

# From patent US8735417B2, “Aminopyrimidines as Syk inhibitors” (Merck Sharp & Dohme Corp., priority 2009, dated 2014)
